Results reported in patent US6291496A, “Treating cancers associated with overexpression of class I family of receptor tyrosine kinases” (priority 1999, dated 2001).

System: EGFR transcription
Experiment: nuclear run-off assay of EGFR transcription in 184B5 cells
Type: cell-based, human
Settings: ciglitazone 5, 10, 25 μM, 24 hours
Method: To determine whether PPARγ ligands inhibit the transcription of EGFR, a nuclear run-off assay was carried out. 184B5 cells were treated with vehicle (0.01% dimethyl sulfoxide) or ciglitazone (5, 10, 25 μM) for 24 hours. 2.5×10^5 cells were plated in four T150 dishes for each condition. Cells were grown in growth medium until 60% confluent. Nuclei were isolated and stored in liquid nitrogen. The EGFR and 18S rRNA cDNAs were immobilized onto a nitrocellulose membrane (Schleicher & Schuell, Keene, N.H.) and prehybridized overnight in hybridization buffer.

CC1(COc2ccc(CC3SC(=O)NC3=O)cc2)CCCCC1 (stereo not shown) [ciglitazone]
EGFR transcription (nuclear run-off): dose-dependent suppression of EGFR transcription
